# In patent US11192849B2, “Compounds, compositions, and methods for modulating ferroptosis and treating excitotoxic disorders” (THE TRUSTEES OF COLUMBIA UNIVERSITY IN THE CITY OF NEW YORK, priority 2013, dated 2021):
# Read-outs that look alike come from different tables or passages of the source. Marks after values point to notes of the source that are not given here.
# Key:
# [1] = Metabolic stability in mouse liver microsomes; type: in vitro ADME; settings: for half-life at 0.5 μM: mouse, liver microsomes
# Description: Test compounds (0.5 μM) were incubated at 37° C. for up to 45 minutes in 50 mM of potassium phosphate buffer (pH 7.4) containing mouse liver microsomal protein (0.5 mg/mL) and an NADPH generating system (0.34 mg/mL β-nicotinamide adenine dinucleotide phosphate (NADP), 1.56 mg/mL glucose-6-phosphate, 1.2 units/mL glucose-6-phosphate dehydrogenase). At 0, 5, 15, 30, and 45 minute intervals, an aliquot was taken and quenched with acetonitrile (ACN) containing internal standard. No-cofactor controls at 45 minutes were prepared. Following completion of the experiment, the samples were analyzed by LC-MS/MS.
# The half-life (t1/2) was calculated using the following equation: t1/2=0.693/k Where, k is the elimination rate constant of test compounds obtained by fitting the data to the equation: C=initial×exp(−k×t) Intrinsic clearance (Clint) is calculated as liver clearance from the half-life using the following equation: […]
# 0.5 mg protein/mL incubation
# Ethoxycoumarin was used as a control.
# [2] = In vitro stability study in mouse plasma; type: in vitro ADME; settings: for Percent Remaining: 37° C.
# Description: The assay was conducted by incubating 1 μM of test compounds with Mouse Plasma (Strain […]) for a series of incubation times (0, 15, 30, 60, 120 minutes) at various temperatures (wet ice, room temperature, or 37° C.) with 5% CO2 and shaking (130 rpm). At each time point, the samples were quenched with 200 μL of stop solution containing an internal standard and kept on ice. The samples were analysed by LC-MS/MS.
# [3] = test system: C57BL/6 mice, kidney ischemia-reperfusion injury; assay: Kidney model of ischemia-reperfusion injury (IRI); type: in vivo
# Description: As an initial in vivo study, the effects of Fer-1 and SRS16-86 on serum creatinine, a marker of kidney damage, were evaluated in an ischemia reperfusion injury (IRI) model of kidney failure (FIG. 21).
# Organs were dissected as indicated in each experiment and infused with 4% (vol/vol) neutral-buffered formaldehyde, fixated for 48 h, dehydrated in a graded ethanol series and xylene, and finally embedded in paraffin. Stained sections were analyzed using an Axio Imager microscope (Zeiss). Kidney damage was quantified by two experienced pathologists in a double-blind manner on a scale ranging from 0 (unaffected tissue) to 10 (severe organ damage). The following parameters were chosen as indicative of morphological damage to the kidney after ischemia-reperfusion injury (IRI): brush border loss, red blood cell extravasation, tubule dilatation, tubule degeneration, tubule necrosis, and tubular cast formation. These parameters were evaluated on a scale of 0-10, which ranged from not present (0), mild (1-4), moderate (5 or 6), severe (7 or 8), to very severe (9 or 10). Each parameter was determined on at least four different animals.
# Induction of kidney IRI was performed via a midline abdominal incision and a bilateral renal pedicle clamping for either 40 min (severe IRI, or “lethal-to-WT” IRI) or 50 min (ultra-severe IRI) using microaneurysm clamps (Aesculab). Throughout the surgical procedure, the body temperature was maintained between 36° C. and 37° C. by continuous monitoring using a temperature-controlled self-regulated heating system (Fine Science Tools). After removal of the clamps, reperfusion of the kidneys was confirmed visually. The abdomen was closed in two layers using standard 6-0 sutures. Sham-operated mice underwent the identical surgical procedures, except that microaneurysm clamps were not applied. To maintain fluid balance, all of the mice were supplemented with 1 mL of prewarmed PBS administered intraperitoneally directly after surgery. All mice were killed 48 h after reperfusion for each experiment. […] All ischemia-reperfusion experiments were performed in a double-blinded manner.
# [4] = test system: HT1080 cells; assay: FACS (7AAD / annexin V) of erastin-treated HT1080 cells; type: cell-based, human; settings: 50 μM erastin, 1 μM compound
# Description: (§1) For induction of necroptosis, HT-29 cells were stimulated for 24 h at 37° C. with 100 ng/mL TNFα plus 1 μM Smac mimetics plus 25 μM zVAD as indicated (vehicle-treated cells served as control). For induction of ferroptosis, NIH and HT-1080 cells were each stimulated for 24 h at 37° C. with 50 μM erastin as indicated (vehicle-treated cells served as a control). For induction of apoptosis, Jurkat cells were stimulated for 4 h with 100 ng/mL monoclonal anti-Fas (clone 7C11; Immunotech). Anti-Fas-induced apoptosis of Jurkat cells was inhibited by further addition of 25 μM zVAD (vehicle-treated cells served as control).
# (§2) Phosphatidylserine exposure to the outer cell membrane of apoptotic cells or at the inner plasma membrane of necrotic cells and incorporation of 7-AAD into necrotic cells were quantified by fluorescence-activated cell sorting (FACS) analysis. The ApoAlert annexin V-FITC antibody and the 7-AAD antibody were purchased from BD Biosciences.
# [5] = test system: NIH 3T3 cells; assay: FACS (7AAD / annexin V) of erastin-treated NIH 3T3 cells; type: cell-based, murine; settings: 50 μM erastin, 1 μM compound
# Description: as §1, §2
# [6] = test system: freshly isolated murine renal tubules; assay: Synchronized necrosis of freshly isolated renal tubules (fatty-acid depletion / erastin); type: cell-based, mouse; settings: in the presence of fatty acids
# Description: Six to 12 mice were used for each isolated tubule preparation, depending on the amount of material needed for particular experiments. For preparation of isolated tubules, mice were anesthetized with ketamine (100 mg/kg i.p.) and xylazine (10 mg/kg i.p.), and the kidneys were immediately removed. Type I collagenase was from Worthington Biochemical. Percoll was purchased from Amersham Biosciences. All other reagents and chemicals, including delipidated BSA, were of the highest grade available from Sigma-Aldrich. […] The cortices were then dissected and minced on an ice-cold tile and then resuspended in additional solution A for 8-10 min of digestion at 37° C., followed by enrichment of proximal tubules using centrifugation on self-forming Percoll gradients. For Nec-1 studies in renal tubules, renal cortices were dissected in ice-cold dissection solution (DS) [HBSS with 10 mmol/L glucose, 5 mmol/L glycine, 1 mmol/L alanine, 15 mmol/L Hepes (pH 7.4); osmolality, 325 mOsmol/L] and sliced into 1-mm pieces. The fragments were transferred to collagenase solution (DS with 0.1% (wt/vol) type 2 collagenase and 96 μg/mL soybean trypsin inhibitor) and digested for 30 min at 37° C. and 61×g. After digestion, the supernatant was sieved through two nylon sieves: first 250-μm pore size and then 100-μm pore size. […]
smiles,measurement,setting,value
"CC(C)(C)OC(=O)c1ccc(NC23CC4CC(CC(C4)C2)C3)c(/N=C\c2cncnc2)c1 [SRS16-86, tert-butyl 4-(adamantylamino)-3-(pyrimidin-5-ylmethyleneamino)benzoate]",Elimination rate constant (k),"[1]; Mouse, Compound Conc = 0.5 μM",<0.0048
same,Intrinsic Clearance (CLint) (mL/min/g liver),"[1]; Mouse, Compound Conc = 0.5 μM",<0.5* mL/min/g liver
same,half-life at 0.5 μM,"[1]; pH 7.4, Mouse, Compound Conc = 0.5 μM, read-out: Half life (t½)",> 1.5 h
same,half-life at 0.5 μM,"[1]; pH 7.4, stated in the text of Example 15, read-out: T1/2 in mouse liver microsomes",> 2 h
same,Percent Remaining,[2]; 0 minutes,100.0%
same,Percent Remaining,[2]; 15 minutes,82.2%
same,Percent Remaining,[2]; 30 minutes,86.5%
same,Percent Remaining,[2]; 60 minutes,83.9%
same,Percent Remaining,[2]; 120 minutes,63.9%
same,half-life at 1 μM,"[2]; C57BL/4, mouse, plasma, read-out: T1/2 in mouse plasma",> 2 h
same,serum creatinine in IRI model of kidney failure,[3]; 2 mg/kg IP 30 minutes prior to induction of IRI,effective
same,functional acute renal failure and structural organ damage after severe IRI,"[3]; 40 min ischemia, 48 h after reperfusion, 2 mg/kg i.p.",protected from functional acute renal failure
same,"serum urea and serum creatinine in ultrasevere IRI, added to Nec-1+SfA","[3]; 50 min ischemia, Nec-1+SfA-treated mice, 2 mg/kg i.p.",reduced plasma levels of serum urea and serum creatinine
same,ferroptosis-inhibiting ability (FACS),[4],active compound
same,ferroptosis-inhibiting ability (FACS),[5],active compound
same,tubular necrosis,[6],prevented
